Reference: patent US10087144B2, “Agents for use in the treatment of cardiovascular and inflammatory diseases structurally based on 4(1 H)-quinolone” (UCL Business PLC, priority 2015, dated 2018)
Like-named read-outs stand apart in the source and are kept apart here. One block for each molecule: values may come before it.

How the values were obtained:
[1] = system: rat mesenteric artery smooth muscle cells; assay: Ca2+ flux in response to Angiotensin II in isolated rat mesenteric artery smooth muscle cells (FLIPR); format: cell-based; conditions: for inhibition at 1 µM / inhibition at 10 µM: Rattus norvegicus; for inhibition at 1 µM: read-out: % inhibition 1 μM; for inhibition at 10 µM: read-out: % inhibition 10 μM
Protocol: Mesenteric artery smooth muscle cells were isolated from male Sprague-Dawley rats (200-250 g). Mesenteric arteries were dissected, cleared of extraneous tissue and incubated in an enzyme solution containing collagenase type I (1 mg/ml), soybean trypsin inhibitor (0.25 mg/ml), bovine albumin (1 mg/ml), CaCl2 (0.2 mM), 100 U/ml penicillin (100 U/ml) and streptomycin (100 μg/ml) in a humidified incubator with 5% CO2 in air. The enzyme solution was replenished at 30 min intervals and cells were pelleted by centrifugation (200 g, 5 min) and differentially plated (×2) for 15 min in Dulbecco's Modified Eagle's Medium (DMEM) supplemented with penicillin (100 U/ml), streptomycin (100 μg/ml), L-Glutamine (2 mM) and 10% heat inactivated New Zealand foetal calf serum. Cells were passaged by trypsinisation and viability determined by trypan blue exclusion.
Measurements of Ca^2+ flux in response to Angiotensin II were conducted using a Fluorescent Imaging Plate Reader (FLIPR; Molecular Devices). Cells were plated at a density of 10,000 cells/well into black, clear-bottomed 96-well plates in DMEM supplemented with penicillin (100 U/ml), streptomycin (100 μg/ml), L-Glutamine (2 mM) and 10% heat inactivated New Zealand foetal calf serum. 24 hrs later the cells were incubated with Fluo-3-AM (4 μM) for 60 min at 37° C. Once dye-loaded, the cells were washed thoroughly with the proprietary assay buffer to remove any unincorporated dye. The cells were then incubated with varying concentrations of a number of representative NPR-C agonist molecules of the invention, C-type natriuretic peptide or vehicle (DMSO) and placed into the FLIPR. After 15 mins, Angiotensin II (100 nM) was automatically dispensed into each well and the fluorescence signal followed for 5 mins. Potency was determined by comparison of the peak fluorescence in each test well (run in triplicate) with that of the control (Angiotensin II alone). Background fluorescence (assay buffer only) was subtracted from all values.

rat mesenteric arteries = assay: Vasoreactivity in rat mesenteric arteries in vitro (relaxation of U46619-contracted vessels, tension myograph); conditions: for EC50: vasorelaxation, calculated from concentration-response curves
Protocol: Male rats (Sprague-Dawley; 200-250 g) were stunned and killed by cervical dislocation. The mesentery was removed and third-order arteries mounted in an automated tension myograph (Danish Myotechnology). After an equilibration period of 45 min, vessels were normalized and diameter determined. Following normalization, each vessel was contracted repeatedly with the thromboxane A2-mimetic 9,11-dideoxy-11^α,9^α-epoxymethano-prostaglandin F2α (U46619; 1 μM) until the response was reproducible. The vessels were then washed to restore basal tone before contracting to approximately 50% of the maximum U46619-induced response. Once a stable response to U46619 was achieved, cumulative concentration-response curves were constructed with a variety of NPR-C agonists of the invention at varying concentrations (0.001-30 μM), or vehicle (DMSO). In some studies, concentration-response curves to NPR-C agonists were conducted in the presence of the NPR-C antagonist M372049 (10 μM). Only one curve to any one agonist was constructed in any single tissue.

Human NPR-C = Human NPR-C (Homo sapiens (Human), UniProt P17342); assay: Surface plasmon resonance (SPR) spectroscopy, binding to immobilised human NPR-C; conditions: FIGS. 5, 6 and 7
Protocol: All SPR analysis was performed on a BIAcore T200 system using series S CM5 sensor chips. Data processing and analysis were performed using BIAevaluation software and Scrubber2. All sensorgrams were double referenced by subtracting the response on a reference flowcell and a blank sample.
Human NPR-C (OriGene, Rockville, USA), was covalently attached to a CM5 chip via amine coupling. A surface density of 2700 RU was used for measurements with natriuretic peptides and the NPR-C antagonist M372049, and a density of 5200 RU for measurements with compound 118. Sequential injections of CNP (0.25, 0.50, 1, 2 & 4 nM) were performed at a flow rate of 30 μL/min for (240 s for each), followed by a dissociation time of 3600 s. Binding site saturation was observed and the surface was regenerated by two injections of 1M NaCl (200 s each). Binding of M372049 (0.94, 1.88, 3.75, 7.5, 15, 30 & 60 nM) and Compound 118 (1.17, 2.34, 4.70, 9.38, 18.75, 37.50, 75 & 150 μM) was analysed by sequential injections (120 s for M372049, 30 s for compound 118) followed by undisturbed dissociation (600 s for M372049, 30 s for compound 118), during which curves returned to baseline. Kinetic parameters were calculated assuming a simple 1:1 (Langmuir) binding.

[2] = 1 μM compound, inhibition of Angiotensin II (100 nM) Ca2+ flux peak fluorescence
[3] = 10 μM compound, inhibition of Angiotensin II (100 nM) Ca2+ flux peak fluorescence
[4] = 1 μM, U46619-contracted third-order arteries
[5] = 3 μM, U46619-contracted third-order arteries
[6] = 10 μM, U46619-contracted third-order arteries
[7] = 30 μM, U46619-contracted third-order arteries

Sequence of Human NPR-C (P17342 27-541): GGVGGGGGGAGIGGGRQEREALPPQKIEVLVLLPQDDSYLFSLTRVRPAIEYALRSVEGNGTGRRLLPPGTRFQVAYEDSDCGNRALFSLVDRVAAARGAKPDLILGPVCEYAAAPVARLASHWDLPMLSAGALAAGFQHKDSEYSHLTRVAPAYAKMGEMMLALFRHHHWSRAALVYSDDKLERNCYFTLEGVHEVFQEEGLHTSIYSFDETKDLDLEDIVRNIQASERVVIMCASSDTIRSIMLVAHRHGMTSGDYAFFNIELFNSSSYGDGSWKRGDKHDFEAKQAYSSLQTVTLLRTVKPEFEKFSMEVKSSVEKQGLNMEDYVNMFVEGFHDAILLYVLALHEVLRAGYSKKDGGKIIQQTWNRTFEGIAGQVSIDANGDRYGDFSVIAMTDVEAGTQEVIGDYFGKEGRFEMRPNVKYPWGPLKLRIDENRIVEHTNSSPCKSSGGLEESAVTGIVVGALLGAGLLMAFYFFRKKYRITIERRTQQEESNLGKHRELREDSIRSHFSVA

SMILES: CC(C)C[C@H](NC(=O)c1cn(Cc2ccccc2)c2ccc(Br)cc2c1=O)C(=O)OC(C)(C)C [Compound 60, (S)-tert-butyl 2-(1-benzyl-6-bromo-4-oxo-1,4-dihydroquinoline-3-carboxamido)-4-methylpentanoate]
inhibition at 1 µM [1, 2]: 0% | inhibition at 10 µM [1, 3]: 80%

SMILES: CC(C)(C)OC(=O)[C@H](Cc1ccccc1)NC(=O)c1cn(Cc2ccccc2)c2ccc(Br)cc2c1=O [Compound 61, (S)-tert-butyl 2-(1-benzyl-6-bromo-4-oxo-1,4-dihydroquinoline-3-carboxamido)-3-phenylpropanoate]
inhibition at 1 µM [1, 2]: 27% | inhibition at 10 µM [1, 3]: 100%

SMILES: CC(C)(C)OC(=O)CNC(=O)c1cn(Cc2ccccc2)c2ccc(Br)cc2c1=O [Compound 62]
% inhibition 1 μM [1, 2]: 0% | % inhibition 10 μM [1, 3]: 50%

SMILES: CC(C)[C@H](NC(=O)c1cn(Cc2ccccc2)c2ccc(Br)cc2c1=O)C(=O)OC(C)(C)C [Compound 63, (S)-tert-butyl 2-(1-benzyl-6-bromo-4-oxo-1,4-dihydroquinoline-3-carboxamido)-3-methylbutanoate]
inhibition at 1 µM [1, 2]: 58% | inhibition at 10 µM [1, 3]: 100%

SMILES: CCOC(=O)c1c[nH]c2ccccc2c1=O [Compound 84, ethyl 4-oxo-1,4-dihydroquinoline-3-carboxylate]
inhibition at 1 µM [1]: 40% | inhibition at 10 µM [1]: 45%

SMILES: CCOC(=O)c1cn(Cc2ccccc2)c2ccccc2c1=O [Compound 85, ethyl 1-benzyl-4-oxo-1,4-dihydroquinoline-3-carboxylate]
inhibition at 1 µM [1, 2]: 0% | inhibition at 10 µM [1, 3]: 97%

SMILES: O=C(O)c1cn(Cc2ccccc2)c2ccccc2c1=O [Compound 86, 1-benzyl-4-oxo-1,4-dihydroquinoline-3-carboxylic acid]
inhibition at 1 µM [1, 2]: 0% | inhibition at 10 µM [1, 3]: 45%

SMILES: CC(C)(C)OC(=O)CNC(=O)c1cn(Cc2ccccc2)c2ccccc2c1=O [Compound 87, tert-butyl 2-(1-benzyl-4-oxo-1,4-dihydroquinoline-3-carboxamido)acetate]
inhibition at 1 µM [1, 2]: 0% | inhibition at 10 µM [1, 3]: 67%

SMILES: CC(C)[C@H](NC(=O)c1cn(Cc2ccccc2)c2ccccc2c1=O)C(=O)OC(C)(C)C [Compound 88, (S)-tert-butyl 2-(1-benzyl-4-oxo-1,4-dihydroquinoline-3-carboxamido)-3-methylbutanoate]
inhibition at 1 µM [1, 2]: 12% | inhibition at 10 µM [1, 3]: 55%

SMILES: CC(C)c1cccc2c(=O)c(C(=O)O)c[nH]c12 [Compound 103]
% inhibition 1 μM [1, 2]: 0% | % inhibition 10 μM [1, 3]: 65%

SMILES: COc1ccc2[nH]cc(C(=O)O)c(=O)c2c1 [Compound 104]
% inhibition 1 μM [1, 2]: 0% | % inhibition 10 μM [1, 3]: 69%

SMILES: CC(=O)c1ccc2[nH]cc(C(=O)O)c(=O)c2c1 [Compound 105]
% inhibition 1 μM [1, 2]: 80% | % inhibition 10 μM [1, 3]: 100%

SMILES: O=C(O)c1ccc2c(=O)c(C(=O)O)c[nH]c2c1 [Compound 106]
% inhibition 1 μM [1, 2]: 90% | % inhibition 10 μM [1, 3]: 90%

SMILES: Cc1cccc2c(=O)c(C(=O)O)c[nH]c12 [Compound 107]
% inhibition 1 μM [1, 2]: 15% | % inhibition 10 μM [1, 3]: 100%

SMILES: CN(C)c1ccc2[nH]cc(C(=O)O)c(=O)c2c1 [Compound 108]
% inhibition 1 μM [1, 2]: 0% | % inhibition 10 μM [1, 3]: 90%

SMILES: O=C(O)c1c[nH]c2c(C(=O)O)cccc2c1=O [Compound 109]
% inhibition 1 μM [1, 2]: 18% | % inhibition 10 μM [1, 3]: 100%

SMILES: O=C(O)c1c[nH]c2cc(C(F)(F)F)ccc2c1=O [Compound 110]
% inhibition 1 μM [1, 2]: 70% | % inhibition 10 μM [1, 3]: 100%

SMILES: O=C(O)c1ccc2[nH]cc(C(=O)O)c(=O)c2c1 [Compound 111]
% inhibition 1 μM [1, 2]: 100% | % inhibition 10 μM [1, 3]: 100%

SMILES: Cc1ccc2[nH]cc(C(=O)O)c(=O)c2c1 [Compound 112]
% inhibition 1 μM [1, 2]: 100% | % inhibition 10 μM [1, 3]: 100%

SMILES: O=C(O)c1c[nH]c2ccc(Br)cc2c1=O [Compound 113]
% inhibition 1 μM [1, 2]: 12% | % inhibition 10 μM [1, 3]: 100%

SMILES: O=C(O)c1c[nH]c2ccc(F)cc2c1=O [Compound 114]
% inhibition 1 μM [1, 2]: 100% | % inhibition 10 μM [1, 3]: 100%

SMILES: CC(C)C(NC(=O)c1cn(Cc2ccccc2)c2ccccc2c1=O)C(=O)O (stereo not drawn) [Compound 116]
% inhibition 1 μM [1, 2]: 80% | % inhibition 10 μM [1, 3]: 100% | % relaxation 1 μM (rat mesenteric arteries; [4]): 4% | % relaxation 3 μM (rat mesenteric arteries; [5]): 0% | % relaxation 10 μM (rat mesenteric arteries; [6]): 0% | % relaxation 30 μM (rat mesenteric arteries; [7]): 9%

SMILES: O=C(O)CNC(=O)c1cn(Cc2ccccc2)c2ccccc2c1=O [Compound 117, 2-(1-benzyl-4-oxo-1,4-dihydroquinoline-3-carboxamido)acetic acid]
inhibition at 1 µM [1, 2]: 87% | inhibition at 10 µM [1, 3]: 100% | inhibition at 1 µM (rat mesenteric arteries; Rattus norvegicus, 1 μM, U46619-contracted third-order arteries): 0% | inhibition at 3 µM (rat mesenteric arteries; Rattus norvegicus, 3 μM, U46619-contracted third-order arteries): 0% | inhibition at 10 µM (rat mesenteric arteries; Rattus norvegicus, 10 μM, U46619-contracted third-order arteries): 2% | inhibition at 30 µM (rat mesenteric arteries; Rattus norvegicus, 30 μM, U46619-contracted third-order arteries): 42% | EC50 (rat mesenteric arteries; Rattus norvegicus): > 50 µM

SMILES: CC(C)C(NC(=O)c1cn(Cc2ccccc2)c2ccc(Br)cc2c1=O)C(=O)O (stereo not drawn) [Compound 119]
% inhibition 1 μM [1, 2]: 80% | % inhibition 10 μM [1, 3]: 100% | % relaxation 1 μM (rat mesenteric arteries; [4]): 2% | % relaxation 3 μM (rat mesenteric arteries; [5]): 5% | % relaxation 10 μM (rat mesenteric arteries; [6]): 26% | % relaxation 30 μM (rat mesenteric arteries; [7]): 94% | EC50 (rat mesenteric arteries): > 50 µM

SMILES: O=C(O)c1cn(C2CC2)c2cc(N3CCNCC3)c(F)cc2c1=O [Compound 134]
% inhibition 1 μM [1, 2]: 55% | % inhibition 10 μM [1, 3]: 80%

SMILES: CC1COc2c(N3CCN(C)CC3)c(F)cc3c(=O)c(C(=O)O)cn1c23 (stereo not drawn) [Compound 136]
% inhibition 1 μM [1, 2]: 15% | % inhibition 10 μM [1, 3]: 20%

SMILES: CC1COc2c(N3CCN(C)CC3)c(F)cc3c(=O)c(C(=O)O)cn1c23 (stereo not drawn) [Compound 138]
% inhibition 1 μM [1, 2]: 11% | % inhibition 10 μM [1, 3]: 40%

SMILES: C[C@@H]1CN(c2c(F)c(N)c3c(=O)c(C(=O)O)cn(C4CC4)c3c2F)C[C@H](C)N1 [Compound 141]
% inhibition 1 μM [1, 2]: 0% | % inhibition 10 μM [1, 3]: 28%

SMILES: CC1CCc2c(N3CCC(O)CC3)c(F)c(N)c3c(=O)c(C(=O)O)cn1c23 (stereo not drawn) [Compound 142]
% inhibition 1 μM [1, 2]: 18% | % inhibition 10 μM [1, 3]: 75%

SMILES: CN1CCN(c2cc3c(cc2F)c(=O)c(C(=O)O)cn3-c2ccc(F)cc2)CC1 [Compound 144]
% inhibition 1 μM [1, 2]: 23% | % inhibition 10 μM [1, 3]: 40%

binding to human NPR-C (SPR) (Human NPR-C): binding
SMILES: CC[C@H](C)[C@H](NC(=O)[C@@H](CCCN=C(N)N)NC(=O)[C@H](CC(=O)O)NC(=O)[C@H]([C@@H](C)CC)N1CC[C@@H](NC(=O)Cc2ccc(NC(=O)c3cnc4ccccc4n3)cc2)C1=O)C(N)=O [Compound M372049]
